# Laboratory results reported in patent US7851474B2, “Dipiperazinyl ketones and related analogues” (Neurogen Corporation, priority 2005, dated 2010).
# Target: T1, chimeric human H3 receptor (Homo sapiens, UniProt Q9Y5N1, E19D)
# T1 construct: made in house; host or cells: Sf9 insect cells (baculovirus infection); P2 membrane preparation
# Experiment: Chimeric human H3 receptor GTP binding assay (agonist-stimulated GTP-gamma35S binding, Example 7)
# Assay type: biochemical
# Conditions: not given
# Outline: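 Sf9 membranes co-expressing the chimeric receptor and heterotrimeric G-protein subunits, 35 μg protein per tube, in pH 7.4 Tris buffer with 10 μM GDP. Test compounds at 10^−10 to 10^−6 M with 1 μM histamine, 60 min at room temperature. Filter-bound GTP-gamma^35S read by scintillation; IC50 from non-linear regression of dose-response curves.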
# T1 sequence (Q9Y5N1 with tags, fused parts or gaps E19D): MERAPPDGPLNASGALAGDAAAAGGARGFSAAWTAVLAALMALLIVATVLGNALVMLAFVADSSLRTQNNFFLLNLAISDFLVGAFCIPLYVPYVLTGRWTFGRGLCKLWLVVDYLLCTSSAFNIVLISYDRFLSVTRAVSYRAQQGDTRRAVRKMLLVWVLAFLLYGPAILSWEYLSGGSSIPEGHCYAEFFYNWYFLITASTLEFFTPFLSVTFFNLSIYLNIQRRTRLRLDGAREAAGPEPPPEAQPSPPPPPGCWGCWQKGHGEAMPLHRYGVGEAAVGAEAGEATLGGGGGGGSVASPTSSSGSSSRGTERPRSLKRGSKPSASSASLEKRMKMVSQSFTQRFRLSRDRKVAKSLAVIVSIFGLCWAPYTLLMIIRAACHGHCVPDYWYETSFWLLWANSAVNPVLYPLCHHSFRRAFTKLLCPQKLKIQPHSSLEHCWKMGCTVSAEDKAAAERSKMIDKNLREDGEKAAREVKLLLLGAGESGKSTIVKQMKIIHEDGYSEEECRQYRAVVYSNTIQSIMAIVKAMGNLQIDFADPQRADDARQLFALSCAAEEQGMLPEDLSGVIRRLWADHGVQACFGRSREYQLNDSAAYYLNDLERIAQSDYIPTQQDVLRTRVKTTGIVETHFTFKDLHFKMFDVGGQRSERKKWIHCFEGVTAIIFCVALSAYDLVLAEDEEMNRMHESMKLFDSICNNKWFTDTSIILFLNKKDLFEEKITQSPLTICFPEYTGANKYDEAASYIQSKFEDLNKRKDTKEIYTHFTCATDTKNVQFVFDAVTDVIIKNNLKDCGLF
row,Compound,Ki [µM]
1,"CCC(C)N1CCN(C(=O)CN2CCN(c3cccc(Cl)c3)CC2)CC1 (centres unmarked) [Compound 873, 1-sec-butyl-4-{[4-(3-chlorophenyl)piperazin-1-yl]acetyl}piperazine]",< 1

# Same assay, conditions: Table II, "*" in Ki; assay of Example 7; read-out: Ki
row,Ki [µM],Compound
1,< 1,"CCc1ccc(-c2ccc(N3CCN(CC(=O)N4CCN(C5CCC5)CC4)CC3)cc2)cc1 [Compound 770, 1-cyclobutyl-4-{[4-(4′-ethylbiphenyl-4-yl)piperazin-1-yl]acetyl}piperazine]"

# Same assay, conditions: assay of Example 7; "*" in Ki of Table II; read-out: Ki
row,Ki [µM],Compound
1,< 1,O=C(CN1CCC2(CC1)C(=O)NCN2c1ccccc1)N1CCN(C2CCC2)CC1 [Compound 1190]

# Same assay, conditions: assay of Example 7; symbol * in column headed Ki of Table II; read-out: Ki
row,Ki [µM],Compound
1,< 1,CN1C(=O)C2(CCN(CC(=O)N3CCN(C4CCC4)CC3)CC2)c2ccccc21 [Compound 423]

# Target: T1, chimeric human H3 receptor
# Experiment: Chimeric human H3 receptor screening GTP binding assay (inhibition of histamine-stimulated GTP-gamma35S binding, Example 8)
# Assay type: biochemical
# Conditions: 1 h; "+" in Ki of Table II; assay of Example 8; read-out: percent inhibition of agonist-induced GTP-gammaS binding to H3
# Protocol: This Example illustrates a representative screening assay for evaluating inhibition of histamine-stimulated GTP-gamma^35S binding. Such GTP binding activity can be used to identify H3 antagonists and inverse agonists. A compound analyzed in this assay is referred to herein as a “test compound,” and the initial identification of antagonists and inverse agonists is performed using a test compound concentration of 4 μM.
# Four independent baculoviral stocks (one directing the expression of the chimeric human H3 receptor and three directing the expression of each of the three subunits of a heterotrimeric G-protein) are used to infect a culture of Sf9 cells as described above. P2 membranes are prepared as described above, and are resuspended by Dounce homogenization (tight pestle) in GTP binding assay buffer (50 mM Tris pH 7.4, 120 mM NaCl, 5 mM MgCl2, 2 mM EGTA, 1 mg/ml BSA, 0.2 mg/ml bacitracin, 0.02 mg/ml aprotinin, 0.01 mg/ml saponin, 10 μM GDP) and added to assay tubes at a concentration of 35 μg protein/reaction tube. Non-radiolabeled test compounds are added to separate reactions at a concentration of 4 μM along with 1 μM histamine (agonist). Reactions are initiated by the addition of 125 pM GTP-gamma^35S with a final assay volume of 0.20 ml.
# After a 60-min incubation at room temperature, reactions are terminated by vacuum filtration over GF/C filters (pre-soaked in 50 mM Tris pH 7.4, 120 mM NaCl plus 0.1% BSA) followed by washing with ice-cold buffer (50 mM Tris pH 7.4, 120 mM NaCl). The amount of receptor-bound (and thereby membrane-bound) GTP-gamma^35S is determined by measuring the bound radioactivity, preferably by liquid scintillation spectrometry of the washed filters. Non-specific binding is determined using 10 uM GTP-gammaS and typically represents less than 5 percent of total binding. After subtraction of non-specific binding, data is expressed as percent inhibition of 1 μM histamine signal.
# Neutral antagonists are those test compounds that reduce the histamine-stimulated GTP binding activity towards, but not below, baseline levels. In contrast, in the absence of added histamine, inverse agonists reduce the GTP binding activity of the receptor-containing membranes below baseline. Any test compound that elevates GTP binding activity above baseline in the absence of added histamine in this assay is defined as having agonist activity.
row,Compound,inhibition at 4 µM [%]
1,"O=C(COc1cccc2ccccc12)N1CCN(CC(=O)N2CCN(C3CCC3)CC2)CC1 [Compound 500, 1-cyclobutyl-4-({4-[(1-naphthyloxy)acetyl]piperazin-1-yl}acetyl)piperazine]",> 90
2,"O=C(Cc1c(F)cccc1F)N1CCN(CC(=O)N2CCN(C3CCC3)CC2)CC1 [Compound 512, 1-cyclobutyl-4-({4-[(2,6-difluorophenyl)acetyl]piperazin-1-yl}acetyl)piperazine]",> 90
3,"O=C(/C=C/c1c(Cl)cccc1Cl)N1CCN(CC(=O)N2CCN(C3CCC3)CC2)CC1 [Compound 522, 1-cyclobutyl-4-({4-[(2E)-3-(2,6-dichlorophenyl)prop-2-enoyl]piperazin-1-yl}acetyl)piperazine]",> 90
4,"O=C(Cc1cccc(Oc2ccccc2)c1)N1CCN(CC(=O)N2CCN(C3CCC3)CC2)CC1 [Compound 556, 1-cyclobutyl-4-({4-[(3-phenoxyphenyl)acetyl]piperazin-1-yl}acetyl)piperazine]",> 90
5,"O=C(/C=C/c1cccc2ccccc12)N1CCN(CC(=O)N2CCN(C3CCC3)CC2)CC1 [Compound 514, 1-cyclobutyl-4-({4-[(2E)-3-(1-naphthyl)prop-2-enoyl]piperazin-1-yl}acetyl)piperazine]",> 90
6,"O=C(C=Cc1ccccc1F)N1CCN(CC(=O)N2CCN(C3CCC3)CC2)CC1 [Compound 524, 1-cyctobutyl-4-({4-[(2E)-3-(2-fluorophenyl)prop-2-enoyl]piperazin-1-yl}acetyl)piperazine]",> 90
7,"O=C(Cc1ccc(Cl)cc1Cl)N1CCN(CC(=O)N2CCN(C3CCC3)CC2)CC1 [Compound 505, 1-cyclobutyl-4-({4-[(2,4-dichlorophenyl)acetyl]piperazin-1-yl]acetyl)piperazine]",> 90

# Same assay, conditions: 1 h; Table II "Ki", symbol "+": assay described in Example 8; read-out: percent inhibition of agonist-induced GTP-gammaS binding to H3
row,inhibition at 4 µM [%],Compound
1,> 90,"CCCn1c(C(=O)N2CCN(CC(=O)N3CCN(C4CCC4)CC3)CC2)cc2ccccc21 [Compound 889, 2-({4-[2-(4-cyclobutylpiperazin-1-yl)-2-oxoethyl]piperazin-1-yl}carbonyl)-1-propyl-1H-indole]"
2,> 90,"Cc1cccc(C(=O)N2CCN(CC(=O)N3CCN(C4CCC4)CC3)CC2)c1N [Compound 892, 2-({4-[2-(4-cyclobutylpiperazin-1-yl)-2-oxoethyl]piperazin-1-yl}carbonyl)-6-methylaniline]"

row,Compound,inhibition at 4 µM [%]
1,"O=C(Cc1ccccc1)N1CCN(CC(=O)N2CCN(C3CCC3)CC2)CC1 [Compound 798, 1-cyclobutyl-4-{[4-(phenylacetyl)piperazin-1-yl]acetyl}piperazine]",> 90

# Same assay, conditions: 1 h; Table II, "+" in the column headed Ki; assay of Example 8; read-out: percent inhibition of agonist-induced GTP-gammaS binding to H3
row,Compound,inhibition at 4 µM [%]
1,"CCC(C(=O)N1CCN(CC(=O)N2CCN(C3CCC3)CC2)CC1)c1ccc(OC)cc1 (centres unmarked) [Compound 575, 1-cyclobutyl-4-({4-[2-(4-methoxyphenyl)butanoyl]piperazin-1-yl}acetyl)piperazine]",> 90
2,"O=C(CN1CCN(C(=O)c2ccncc2)CC1)N1CCN(C2CCC2)CC1 [Compound 655, 1-cyclobutyl-4-[(4-isonicotinoylpiperazin-1-yl)acetyl]piperazine]",> 90
3,"O=C(CN1CCN(C(=O)c2cccnc2Sc2ccccc2)CC1)N1CCN(C2CCC2)CC1 [Compound 620, 1-cyclobutyl-4-[(4-{[2-(phenylthio)pyridin-3-yl]carbonyl}piperazin-1-yl)acetyl]piperazine]",> 90
4,"O=C(CN1CCN(C(=O)c2cccc(Cl)c2Cl)CC1)N1CCN(C2CCC2)CC1 [Compound 664, 1-cyclobutyl-4-{[4-(2,3-dichlorobenzoyl)piperazin-1-yl]acetyl}piperazine]",> 90

# Results, then the compound that gave them:
row,inhibition at 4 µM [%],Compound
1,> 90,"Cc1cccc(C(=O)N2CCN(CC(=O)N3CCN(C4CCC4)CC3)CC2)c1F [Compound 703, 1-cyclobutyl-4-{[4-(2-fluoro-3-methylbenzoyl)piperazin-1-yl]acetyl}piperazine]"
2,> 90,"O=C(CN1CCN(C(=O)c2ccccc2Oc2ccccc2)CC1)N1CCN(C2CCC2)CC1 [Compound 718, 1-cyclobutyl-4-{[4-(2-phenoxybenzoyl)piperazin-1-yl]acetyl}piperazine]"
3,> 90,"O=C(CN1CCN(C(=O)c2c(F)cccc2F)CC1)N1CCN(C2CCC2)CC1 [Compound 693, 1-cyclobutyl-4-{[4-(2,6-difluorobenzoyl)piperazin-1-yl]acetyl}piperazine]"
4,> 90,"O=C(CN1CCN(C(=O)c2ccc(F)c(F)c2)CC1)N1CCN(C2CCC2)CC1 [Compound 729, 1-cyclobutyl-4-{[4-(3,4-difluorobenzoyl)piperazin-1-yl]acetyl}piperazine]"
5,> 90,"COc1ccc(C(=O)N2CCN(CC(=O)N3CCN(C4CCC4)CC3)CC2)c(OC)c1 [Compound 677, 1-cyclobutyl-4-{[4-(2,4-dimethoxybenzoyl)piperazin-1-yl]acetyl}piperazine]"

# Same assay, conditions: 1 h; assay described in Example 8; symbol + in column headed Ki of Table II; read-out: percent inhibition of agonist-induced GTP-gammaS binding to H3
row,inhibition at 4 µM [%],Compound
1,> 90,"COc1cc(Br)c(/C=C/C(=O)N2CCN(CC(=O)N3CCN(C4CCC4)CC3)CC2)cc1OC [Compound 386, 1-[(2E)-3-(2-bromo-4,5-dimethoxyphenyl)prop-2-enoyl]-4-[2-(4-cyclobutylpiperazin-1-yl)-2-oxoethyl]piperazine]"
2,> 90,"O=C(/C=C/c1ccc2c(c1)OCO2)N1CCN(CC(=O)N2CCN(C3CCC3)CC2)CC1 [Compound 385, 1-[(2E)-3-(1,3-benzodioxol-5-yl)prop-2-enoyl]-4-[2-(4-cyclobutylpiperazin-1-yl)-2-oxoethyl]piperazine]"
3,> 90,"CCn1nc(C)c(Br)c1C(=O)N1CCN(CC(=O)N2CCN(C3CCC3)CC2)CC1 [Compound 402, 1-[(4-bromo-1-ethyl-3-methyl-1H-pyrazol-5-yl)carbonyl]-4-[2-(4-cyclobutylpiperazin-1-yl)-2-oxoethyl]piperazine]"
4,> 90,"O=C(/C=C/c1ccc(-c2ccccc2)cc1)N1CCN(CC(=O)N2CCN(C3CCC3)CC2)CC1 [Compound 394, 1-[(2E)-3-biphenyl-4-ylprop-2-enoyl]-4-[2-(4-cyclobutylpiperazin-1-yl)-2-oxoethyl]piperazine]"
5,> 90,"O=C(/C=C/c1ccc(Cl)cc1)N1CCN(CC(=O)N2CCN(C3CCC3)CC2)CC1 [Compound 391, 1-[(2E)-3-(4-chlorophenyl)prop-2-enoyl]-4-[2-(4-cyclobutylpiperazin-1-yl)-2-oxoethyl]piperazine]"
6,> 90,"O=C(CN1CCN(C(=O)c2ccccc2Cc2ccccc2)CC1)N1CCN(C2CCC2)CC1 [Compound 270, 1-(2-benzylbenzoyl)-4-[2-(4-cyclobutylpiperazin-1-yl)-2-oxoethyl]piperazine]"
